{"source": "paper PMC5947527", "about": "(Chemical Science, 2015)", "key": {"[1]": {"test": "Chemical stability on storage in phosphate buffered saline at 37 °C (HPLC)", "format": "physicochemical", "conditions": "1 mg mL–1 in PBS, day 0 vs day 3, HPLC, detection at 380 nm", "description": "This modification is particularly of relevance due to the expected in vivo inflammatory oxidative environment within an infected pneumonic lung due to infiltrating host inflammatory cells such as neutrophils,[13] and therefore all subsequent modifications incorporated Nle in place of Met.\nHPLC chromatograms (gradient acetonitrile + 0.1% formic acid/water + 0.1% formic acid from 5/95 to 95/5 over 10 min, then isocratic for 4 min; detection at 380 nm). UBI-2 (1 mg mL^–1 in PBS, upper panels) and UBI-3 (1 mg mL^–1 in PBS, lower panels) at (A) day 0 and (B) day 3 after incubation at 37 °C."}, "[2]": {"tested_on": "P. aeruginosa", "test": "Live confocal imaging of bacteria, signal to noise of FAM vs NBD label", "format": "cell-based", "conditions": "confocal microscopy, 10 μM", "excerpt": "UBI29–41 was firstly conjugated to carboxyfluorescein (UBI-1) and used to image bacteria with analysis via confocal microscopy. This yielded insufficient signal to noise to distinguish bacteria from background fluorescence (Fig. 1). We therefore took advantage of the environmental reporting properties of the fluorophore 7-nitrobenz-2-oxa-1,3-diazole (NBD)[12] and hypothesized there would be fluorescence amplification of NBD in the apolar hydrophobic bacterial membrane.\nFig. 1 NBD–UBI enables live confocal imaging of bacteria. […]\n(§1) Confocal Analysis and Fluorescence Quantification: 8-Well Lab-Tek II Confocal Chambers (VWR, PA, USA) were coated in fibronectin (for neutrophil experiments) or poly-d-lysine (for bacteria) at 37 °C for 20 minutes, then washed in PBS prior to bacterial innoculation. […] Exposure to 488 nm light was limited to 5% of the maximum laser power in order to minimize toxicity. ‘Green’ fluorescence (for FAM and NBD) was excited with a dedicated 488 nm line and emitted light detected with meta detector (500-530 nM).\n(§2) Syto nuclear and dyes were excited with a dedicated 543 nm line, and emitted light detected with meta detector (570-610 nM). Fields of view were chosen based on the counterstain and at least three fields of view were recorded for each condition. […]\nmean fluorescence intensity on the probe channel within this ROI was quantified. […]"}, "[3]": {"tested_on": "methicillin-sensitive Staphylococcus aureus (MSSA), Pseudomonas aeruginosa and Klebsiella pneumoniae", "test": "Confocal bacterial labelling, UBI-2 vs UBI-3 on a panel of bacteria", "format": "cell-based", "conditions": "fluorescence normalised to UBI-2, mean ± SEM, n ≥ 3", "description": "Fig. 3 UBI-3 retains specificity and sensitivity for bacterial labelling. […] Panels show bacteria labelled with either UBI-2 or UBI-3 with quantification of fluorescence (values normalised to UBI-2) (Bars represent mean, error bars represent standard error of mean, n ≥ 3, ns = not significant, scale bar = 10 μm). (B) Quantification from confocal images of UBI-3 (10 μM) imaging a panel of bacteria (statistical analyses shown compared to unlabelled bacteria, n ≥ 3 for each bacteria, *** = p < 0.001). […] [MRSA: methicillin-resistant Staphylococcus aureus, MSSA: methicillin-sensitive Staphylococcus aureus]. […]\nas §1, §2"}, "[4]": {"tested_on": "methicillin-sensitive Staphylococcus aureus", "test": "Confocal labelling of MSSA with quantified fluorescence", "format": "cell-based", "conditions": "for concentration dependence of bacterial labelling: 0.5 μM to 50 μM, methicillin sensitive S. aureus; for bacterial labelling (fluorescence compared with UBI-3): MSSA, 10 μM, fluorescence normalized to UBI-3, mean ± SEM, n ≥ 3", "description": "Fig. 6 Confocal Images of compounds UBI-3 to 9 with quantified fluorescence. Panels show methicillin-sensitive Staphylococcus aureus incubated with UBI-3 to 9 (all 10 μM) with quantification of bacterial fluorescence normalized to UBI-3 (bars represent mean (±SEM), n ≥ 3, ns = not significant, *** = p < 0.001, * = p < 0.05, scale bar = 10 μm).\nFig. 8 Confocal images and quantification of cyclic variants when compared to UBI-3. Panels show methicillin-sensitive Staphylococcus aureus incubated with cyclic UBI compounds (all 10 μM) with quantification of bacterial fluorescence normalized to UBI-3 (bars represent mean (±SEM), n ≥ 3, ns = not significant, ** = p < 0.01, scale bar = 10 μm).\nBacterial Culture and Labelling: Bacteria used were K. pneumoniae (ATCC BAA1706) ATCC, E. coli (ATCC 25922) ATCC, A. baumannii (J3433) Clinical Isolate, P. aeruginosa (J3284) Clinical Isolate, Methicillin Resistant S. aureus (MRSA) (ATCC25923) ATCC and Methicillin Sensitive S. aureus (MSSA) (ATCC 252) ATCC. All bacteria were grown on Lysogeny broth (LB) agar and from a single bacterial colony placed into 10ml of LB and incubated at 37°C for 16 hours in an orbital shaker.\nCultures were centrifuged at 4000rpm for 5 minutes and the pellet resuspended in 1ml phosphate buffered saline (PBS, Life Technologies). Following three further washes in PBS the cultures were reconstituted to 1 OD595 nm. Bacteria were counterstained with 5µM Syto 82 orange fluorescent nucleic acid stain (Invitrogen, CA, USA) in a shaking heat block at 37 °C for 20 minutes. For FCFM bacteria were stained with 1µM Calcein AM (Sigma, MO, USA) for 30 minutes at 37 °C. Counterstained bacteria were washed in PBS to remove excess dye. […]\n(§3) Confocal Analysis and Fluorescence Quantification: 8-Well Lab-Tek II Confocal Chambers (VWR, PA, USA) were coated in fibronectin (for neutrophil experiments) or poly-d-lysine (for bacteria) at 37 °C for 20 minutes, then washed in PBS prior to bacterial innoculation. For co-culture assays, neutrophils were seeded on fibronectin coated wells at 1 x 10^5 neutrophils per well for 20 minutes and non-adherent neutrophils aspirated. Bacteria were added to each chamber to a final concentration of 0.5 OD595 nm with the desired final concentration of Smartprobe. A laser-scanning confocal imaging system (LSM510; Carl Zeiss, Jena, Germany), incorporating an upright Axioskop FS2 microscope (63× objective) was used for image acquisition and processing. Exposure to 488 nm light was limited to 5% of the maximum laser power in order to minimize toxicity. ‘Green’ fluorescence (for FAM and NBD) was excited with a dedicated 488 nm line and emitted light detected with meta detector (500-530 nM).\n(§4) Syto nuclear and dyes were excited with a dedicated 543 nm line, and emitted light detected with meta detector (570-610 nM). Fields of view were chosen based on the counterstain and at least three fields of view were recorded for each condition. For affinity assays, following initial imaging, the fluid was aspirated and two gentle washes with PBS were performed. The chamber was re-imaged on confocal.\n(§5) Analysis was with ImageJ (version 1.46r, National Institutes of Health, USA); the Syto channel was automatically thresholded (MaxEntropy, with a set threshold 0-47) and an ROI generated from this. The […]\n(§6) mean fluorescence intensity on the probe channel within this ROI was quantified. Data presented represents the mean of three experiments, from each of which three separate fields of view were assessed. All experiments were performed at least three times unless otherwise stated and results expressed as mean ± SEM. Data was analysed by unpaired t-test and significance was determined as p<0.05 (GraphPad Prism version 5.01 for Windows, GraphPad Software, San Diego California USA).\nEx vivo Human Lung and FCFM Procedure: Human lung samples were obtained from patients undergoing surgical resection for lung carcinoma. All images were obtained on sections of normal lung […]"}, "[5]": {"tested_on": "Methicillin sensitive S. aureus, K. pneumoniae and P. aeruginosa", "test": "Bacterial affinity: fluorescence retention following a PBS wash (confocal)", "format": "cell-based", "conditions": "for bacterial affinity (Table 1, effect on efficacy): Table 1 summary", "description": "Three compounds (UBI-3, UBI-5 and UBI-10) were assessed for further evaluation. […] In vitro affinity of bacterial binding was assessed by incorporating a wash step in the live confocal imaging protocol with a panel of bacteria with the ‘wash-off’ representing a surrogate indicator of Smartprobe-bacterial labelling affinity. […] UBI-10, therefore, was assessed further in a clinically relevant biological system.\nFigure S4. Quantified fluorescence of confocal microscopy images of the compounds UBI-3, UBI-5 and UBI-10 on three bacteria and fluorescence retention following a PBS wash. Quantification of fluorescence intensity of (A) Methicillin sensitive S. aureus, (B) K. pneumoniae and (C) and P. […]\nintensity following a PBS wash. […]\nas §3, §4, §5, §6\nEx vivo Human Lung and FCFM Procedure: Human lung samples were obtained from patients undergoing surgical resection for lung carcinoma. All images were obtained on sections of normal lung away from the cancerous growth. Informed consent was obtained and the study was approved by the Regional Ethics Committee. Samples were taken fresh from the operating theatre, dissected into 4mm sections and placed in wells of 96 well plate. Bacteria were pre-labelled with Smartprobe or Calcein AM and co-cultured in the well with a maximum volume of 100µl. […]"}}, "note": "“Also recorded” adds a separate entry of the source. Residues, ends and D or L forms follow the SMILES beside them. *: point of attachment. NBD = O=[N+]([O-])c1ccc(*)c2nonc12; Ahx = NCCCCCC(=O)O"}
{"compound": "CSCC[C@H](NC(=O)[C@H](CCCNC(=N)N)NC(=O)[C@H](CCCNC(=N)N)NC(=O)[C@H](CCCCN)NC(=O)[C@H](C)NC(=O)[C@H](CCCNC(=N)N)NC(=O)CNC(=O)[C@@H](NC(=O)CCCCCNc1ccc([N+](=O)[O-])c2nonc12)[C@@H](C)O)C(=O)N[C@@H](CCC(N)=O)C(=O)N[C@@H](Cc1ccc(O)cc1)C(=O)N[C@@H](CC(N)=O)C(=O)N[C@@H](CCCNC(=N)N)C(=O)N[C@@H](CCCNC(=N)N)C(N)=O", "note": "[UBI-2] ({NBD-Ahx}-TGRAKRRMQYNRR-NH2)", "values": [{"measurement": "chemical stability in PBS at 37 °C", "setting": "[1]", "result": "underwent chemical degradation; also recorded: Unstable at 37 °C in PBS"}, {"measurement": "signal to noise for bacterial labelling", "setting": "[2]", "result": "good signal to noise; also recorded: higher signal to noise for bacterial labelling over UBI-1"}, {"measurement": "bacterial labelling, Met vs Nle variant", "setting": "[3]", "result": "same fluorescence intensity"}]}
{"compound": "NBD-Ahx-Thr-Gly-Arg-Ala-Lys-Arg-MeArg-Nle-Gln-Tyr-Asn-Arg-Arg-D-Phe-D-Val-NH2 [UBI-5, NBD-UBI with D-amino acids (D-Val and D-Phe) incorporated at the C-terminus]", "values": [{"measurement": "concentration dependence of bacterial labelling", "setting": "[4]", "result": "concentration dependent manner"}, {"measurement": "bacterial labelling (fluorescence compared with UBI-3)", "setting": "[4]", "result": "same intensity as UBI-3"}, {"measurement": "fluorescence following labelling and a PBS wash", "setting": "[5]; 10 µM, two gentle PBS washes, three bacterial species, n=3", "result": "significantly lower fluorescence"}, {"measurement": "bacterial affinity (Table 1, effect on efficacy)", "setting": "[5]", "result": "poor bacterial affinity"}]}
{"compound": "NBD-Ahx-Thr-Gly-Arg-Ala-Lys-MeArg-MeArg-Nle-Gln-Tyr-Asn-MeArg-MeArg-NH2 [UBI-4, NBD-UBI with N-Methylarginine (MeArg) insertion based on MALDI-TOF analysis of cleavage peptides]", "values": [{"measurement": "concentration dependence of bacterial labelling", "setting": "[4]", "result": "concentration dependent increase in bacterial fluorescence"}, {"measurement": "bacterial labelling (fluorescence compared with UBI-3)", "setting": "[4]", "result": "same intensity as UBI-3"}, {"measurement": "bacterial affinity (Table 1, effect on efficacy)", "setting": "[5]", "result": "poor bacterial affinity"}]}
